From US20260021061A1, “ARIADNE AND ANALOGS FOR THE TREATMENT OF NEUROLOGICAL AND NEUROMUSCLAR DISORDERS” (priority 2022, published 2026)

Tests used:
[1] = target: T1, Vasopressin V1A (Homo sapiens, UniProt P37288); assay: SafetyScreen44 287530; format: binding; settings: 10 μM; [125I]Phenylacetyl Tyr(Me)PheGlnAsnArgProArgTyr; recombinant
T1 construct: purchased Eurofins-Panlabs (contract screen SafetyScreen44) assay ID 287530
Protocol: (§1) A broad screen of 44 molecular targets (SafetyScreen44, Eurofins-Panlabs) for Ariadne were performed, which includes G protein-coupled receptors, steroid nuclear receptors, ion channels, neurotransmitter transporters, and metabolic and signaling enzymes. Only two molecular targets, 5-HT2A and 5-HT2B receptors, emerged above the positive hit threshold, defined as 50% displacement of standard radioligands by 10 uM concentration of Ariadne (FIG. 1b, and Table 1).
(§2) For species, “H”=human, “R”=rat. Test compound screened at all targets at concentration of 10 μM.

[2] = target: T2, Serotonin (5-Hydroxytryptamine) 5-HT2B (Homo sapiens, UniProt P41595); assay: SafetyScreen44 271700; format: binding; settings: 10 μM, [3H]Lysergic acid diethylamide (LSD), recombinant
T2 construct: purchased Eurofins-Panlabs (contract screen SafetyScreen44) assay ID 271700
Protocol: as §1, §2

[3] = target: T3, Phosphodiesterase PDE3A (Homo sapiens, UniProt Q14432); assay: SafetyScreen44 152300; format: biochemical; settings: 10 μM; FAM-cAMP; recombinant
T3 construct: Eurofins-Panlabs (contract screen) 152300
Protocol: as §1, §2

[4] = tested on: cats; settings: in comparison to (R)-DOM; cited from earlier work
[5] = target: T4, Cannabinoid CB2 (Homo sapiens, UniProt P34972); assay: SafetyScreen44 217100; format: binding; settings: 10 μM; [3H]WIN-55, 212-2; recombinant
T4 construct: Eurofins-Panlabs (contract screen) 217100
Protocol: as §1, §2

[6] = target: T5, Serotonin (5-Hydroxytryptamine) 5-HT2A (Homo sapiens, UniProt P28223); assay: SafetyScreen44 271650; format: binding; settings: 10 μM, [3H]Ketanserin, recombinant
T5 construct: purchased Eurofins-Panlabs (contract screen SafetyScreen44) assay ID 271650
Protocol: as §1, §2

[7] = target: T6, Serotonin (5-Hydroxytryptamine) 5-HT1B (Homo sapiens, UniProt P28222); assay: SafetyScreen44 271230; format: binding; settings: 10 μM; [3H]GR125743; recombinant
T6 construct: purchased Eurofins-Panlabs (contract screen SafetyScreen44) assay ID 271230
Protocol: as §1, §2

[8] = tested on: GABAA, Flunitrazepam, Central; assay: SafetyScreen44 226600; format: binding, rat; settings: 10 μM; [3H]Flunitrazepam; brain (minus cerebellum)
Protocol: as §1, §2

[9] = target: T7, Opiate δ1 (OP1, DOP) (Homo sapiens, UniProt P41143); assay: SafetyScreen44 260130; format: binding; settings: 10 μM; [3H]Naltrindole; recombinant
T7 construct: purchased Eurofins-Panlabs (contract screen SafetyScreen44) assay ID 260130
Protocol: as §1, §2

[10] = target: T8, Opiate kappa (OP2, KOP) (Homo sapiens, UniProt P41145); assay: SafetyScreen44 260210; format: binding; settings: 10 μM; [3H]Diprenorphine; recombinant
T8 construct: purchased Eurofins-Panlabs (contract screen SafetyScreen44) assay ID 260210
Protocol: as §1, §2

[11] = target: T9, Androgen (Testosterone) (Homo sapiens, UniProt P10275, T878A); assay: SafetyScreen44 206000; format: binding; settings: 10 μM; [3H]Methyltrienolone; LNCaP clone FGC cells
T9 construct: Eurofins-Panlabs (contract screen) 206000
Protocol: as §1, §2

[12] = target: T10, Protein Tyrosine Kinase, LCK (Homo sapiens, UniProt P06239); assay: SafetyScreen44 176020; format: biochemical; settings: 10 μM; Poly(Glu:Tyr); recombinant
T10 construct: Eurofins-Panlabs (contract screen) 176020
Protocol: as §1, §2

[13] = target: T11, Muscarinic M3 (Homo sapiens, UniProt P20309); assay: SafetyScreen44 252810; format: binding; settings: 10 μM; [3H]N-Methylscopolamine; recombinant
T11 construct: purchased Eurofins-Panlabs (contract screen SafetyScreen44) assay ID 252810
Protocol: as §1, §2

[14] = target: T12, Serotonin (5-Hydroxytryptamine) 5-HT1A (Homo sapiens, UniProt P08908); assay: SafetyScreen44 271110; format: binding; settings: 10 μM; [3H]8-OH-DPAT; recombinant
T12 construct: purchased Eurofins-Panlabs (contract screen SafetyScreen44) assay ID 271110
Protocol: as §1, §2

[15] = target: T13, Glucocorticoid (Homo sapiens, UniProt P04150); assay: SafetyScreen44 232030; format: binding; settings: 10 μM; [3H]Dexamethasone; recombinant
T13 construct: Eurofins-Panlabs (contract screen) 232030
Protocol: as §1, §2

[16] = target: T14, Cyclooxygenase COX-2 (Homo sapiens, UniProt P35354); assay: SafetyScreen44 118030; format: biochemical; settings: 10 μM; Arachidonic acid; recombinant
T14 construct: Eurofins-Panlabs (contract screen) 118030
Protocol: as §1, §2

[17] = tested on: mice; assay: Novelty suppressed feeding (NSF); format: in vivo, mouse; settings: 7 days post-drug administration; 10 mg/kg
Protocol: FIGS. 7A-D Effect of Ariadne in behavioral conflict paradigms. (a) Survival plot of effect of (R)-Ariadne (10 mg/kg) on latency to feed in the novelty suppressed feeding (NSF) test 7 days post a single drug administration. (b) Effect of 6 mg/kg and 10 mg/kg (R)-Ariadne on latency to feed in the novelty suppressed feeding (NSF) test 7 days post a single drug administration. (c) Effect of (R)-Ariadne and (±)-DOPR on the time spent in the open vs closed arms and (d) corresponding arm entries 30 minutes and 4 hours post a single subcutaneous injection.

[18] = target: 5-HT1F receptor (Homo sapiens, UniProt P30939); assay: 5-HTome G protein activation BRET assay
Protocol: All BRET assays were conducted using BRET2 in HEK293T cells (ATCC CRL-11268; mycoplasma-free), which were subcultured in high-glucose DMEM (VWR) supplemented with 10% FBS (Life Technologies).
Constructs in G protein-dissociation BRET assays were derived from the codon-optimized Tango pcDNA3.1 library (Addgene) with V2tail/TEV/tTA encoding regions deleted to yield “de-Tango” constructs. […] All Gα-Rluc8, Beta, and GFP2-γ constructs were derived from the TRUPATH pcDNA5/FRT/TO library (Addgene). […]
On the day of the assay, plates were decanted and 20 uL of drug buffer per well (1×HBSS, 20 mM HEPES, pH 7.4) was added using a Multidrop (ThermoFisher Scientific), and plates were allowed to equilibrate at 37° C. in a humidified incubator before receiving drug stimulation. […] Before reading, addition of coelenterazine 400a (5 uM final concentration; Nanolight Technology) was performed by the [sequence]. Immediately after, plates were read at 400 nm Rluc and fluorescent GFP2 emission at 510 nm for BRET2 at 0.8 second per well using a PheraStarFSX (BMB Lab Tech).
The BRET ratios of 510/400 luminescence were calculated per well and were plotted as a function of drug concentration using Graphpad Prism 5 or 9 (Graphpad Software Inc., San Diego, CA). […]

[19] = target: 5-HT2B (Homo sapiens, UniProt P41595); assay: Calcium flux assay; format: cell-based; settings: read-out: Emax relative to 5-HT, calcium flux
Protocol: Therefore, an orthogonal assay measuring calcium flux was also performed for the 5-HT2 receptors (Klein et al., 2020).

[20] = tested on: C57BL/6J mice; assay: Open field locomotion in mice; format: in vivo, mouse

T5 sequence (P28223 whole entry): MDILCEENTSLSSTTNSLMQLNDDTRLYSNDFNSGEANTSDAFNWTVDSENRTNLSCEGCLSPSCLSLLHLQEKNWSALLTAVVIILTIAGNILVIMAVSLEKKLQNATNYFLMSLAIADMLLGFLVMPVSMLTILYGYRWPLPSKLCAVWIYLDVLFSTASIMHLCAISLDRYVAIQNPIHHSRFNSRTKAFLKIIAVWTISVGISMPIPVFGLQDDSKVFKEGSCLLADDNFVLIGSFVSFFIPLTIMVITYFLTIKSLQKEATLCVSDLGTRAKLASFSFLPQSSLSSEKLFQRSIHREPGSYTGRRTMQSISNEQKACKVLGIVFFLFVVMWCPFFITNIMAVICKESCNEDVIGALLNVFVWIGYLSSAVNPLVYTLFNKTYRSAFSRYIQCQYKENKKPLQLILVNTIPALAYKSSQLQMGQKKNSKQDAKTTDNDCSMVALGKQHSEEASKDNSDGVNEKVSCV
Sequence of 5-HT1F receptor (P30939 whole entry): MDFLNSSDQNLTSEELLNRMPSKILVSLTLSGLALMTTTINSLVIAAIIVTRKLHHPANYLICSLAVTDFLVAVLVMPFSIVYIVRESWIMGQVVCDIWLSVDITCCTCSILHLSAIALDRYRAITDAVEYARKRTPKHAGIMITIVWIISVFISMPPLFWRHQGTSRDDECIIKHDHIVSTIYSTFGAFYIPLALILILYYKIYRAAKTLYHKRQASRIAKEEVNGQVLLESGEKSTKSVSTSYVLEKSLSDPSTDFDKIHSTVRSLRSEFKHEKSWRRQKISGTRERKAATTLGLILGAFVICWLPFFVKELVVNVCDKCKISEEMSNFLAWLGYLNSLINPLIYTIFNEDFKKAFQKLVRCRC
T2 sequence (P41595 whole entry): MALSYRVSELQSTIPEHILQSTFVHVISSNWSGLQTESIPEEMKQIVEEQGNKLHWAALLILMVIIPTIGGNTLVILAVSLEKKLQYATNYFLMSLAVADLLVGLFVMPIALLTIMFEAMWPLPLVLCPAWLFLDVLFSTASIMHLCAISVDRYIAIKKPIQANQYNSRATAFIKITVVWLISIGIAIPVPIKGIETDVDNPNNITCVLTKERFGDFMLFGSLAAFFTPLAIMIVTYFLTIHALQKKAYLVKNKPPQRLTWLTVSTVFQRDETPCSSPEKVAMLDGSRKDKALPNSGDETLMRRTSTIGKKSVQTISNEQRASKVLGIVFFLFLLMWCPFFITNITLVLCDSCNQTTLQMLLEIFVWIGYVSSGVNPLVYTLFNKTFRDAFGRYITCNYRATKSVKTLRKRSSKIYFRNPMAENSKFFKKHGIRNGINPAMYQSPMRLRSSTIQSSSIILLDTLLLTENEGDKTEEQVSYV
T1 sequence (P37288 whole entry): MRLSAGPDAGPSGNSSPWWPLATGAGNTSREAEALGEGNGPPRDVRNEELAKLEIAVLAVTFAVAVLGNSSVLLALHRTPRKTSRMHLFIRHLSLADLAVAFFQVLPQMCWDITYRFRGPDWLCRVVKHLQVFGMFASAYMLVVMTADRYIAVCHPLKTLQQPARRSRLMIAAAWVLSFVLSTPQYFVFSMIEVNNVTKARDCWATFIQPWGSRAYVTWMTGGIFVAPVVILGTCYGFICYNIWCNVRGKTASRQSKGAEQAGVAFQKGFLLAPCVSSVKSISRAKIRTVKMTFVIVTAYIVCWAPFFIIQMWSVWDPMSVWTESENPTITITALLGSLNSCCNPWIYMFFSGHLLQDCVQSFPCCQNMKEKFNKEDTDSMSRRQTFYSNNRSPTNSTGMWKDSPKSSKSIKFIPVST
T10 sequence (P06239 whole entry): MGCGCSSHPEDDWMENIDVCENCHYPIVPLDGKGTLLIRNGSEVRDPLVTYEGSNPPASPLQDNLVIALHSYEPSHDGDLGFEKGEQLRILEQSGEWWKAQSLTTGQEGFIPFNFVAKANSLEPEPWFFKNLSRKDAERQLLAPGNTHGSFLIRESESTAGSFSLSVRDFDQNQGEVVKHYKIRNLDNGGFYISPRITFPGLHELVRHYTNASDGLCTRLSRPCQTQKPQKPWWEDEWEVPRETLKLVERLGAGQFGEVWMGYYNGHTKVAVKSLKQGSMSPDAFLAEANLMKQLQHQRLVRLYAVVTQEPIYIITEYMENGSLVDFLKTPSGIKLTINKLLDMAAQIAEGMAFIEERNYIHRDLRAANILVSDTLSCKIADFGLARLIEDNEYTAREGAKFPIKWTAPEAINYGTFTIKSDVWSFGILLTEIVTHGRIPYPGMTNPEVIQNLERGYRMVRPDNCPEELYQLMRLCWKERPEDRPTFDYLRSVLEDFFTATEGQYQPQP
T8 sequence (P41145 whole entry): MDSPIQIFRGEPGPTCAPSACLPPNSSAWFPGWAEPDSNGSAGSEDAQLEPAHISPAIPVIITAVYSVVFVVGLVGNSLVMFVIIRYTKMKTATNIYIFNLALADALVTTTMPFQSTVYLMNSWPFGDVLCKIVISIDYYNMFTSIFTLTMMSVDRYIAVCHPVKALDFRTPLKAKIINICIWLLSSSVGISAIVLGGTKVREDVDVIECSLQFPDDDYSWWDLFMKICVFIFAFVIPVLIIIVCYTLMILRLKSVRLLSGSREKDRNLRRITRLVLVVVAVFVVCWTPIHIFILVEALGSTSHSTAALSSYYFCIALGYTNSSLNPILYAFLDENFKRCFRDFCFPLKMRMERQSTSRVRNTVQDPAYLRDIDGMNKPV
T11 sequence (P20309 whole entry): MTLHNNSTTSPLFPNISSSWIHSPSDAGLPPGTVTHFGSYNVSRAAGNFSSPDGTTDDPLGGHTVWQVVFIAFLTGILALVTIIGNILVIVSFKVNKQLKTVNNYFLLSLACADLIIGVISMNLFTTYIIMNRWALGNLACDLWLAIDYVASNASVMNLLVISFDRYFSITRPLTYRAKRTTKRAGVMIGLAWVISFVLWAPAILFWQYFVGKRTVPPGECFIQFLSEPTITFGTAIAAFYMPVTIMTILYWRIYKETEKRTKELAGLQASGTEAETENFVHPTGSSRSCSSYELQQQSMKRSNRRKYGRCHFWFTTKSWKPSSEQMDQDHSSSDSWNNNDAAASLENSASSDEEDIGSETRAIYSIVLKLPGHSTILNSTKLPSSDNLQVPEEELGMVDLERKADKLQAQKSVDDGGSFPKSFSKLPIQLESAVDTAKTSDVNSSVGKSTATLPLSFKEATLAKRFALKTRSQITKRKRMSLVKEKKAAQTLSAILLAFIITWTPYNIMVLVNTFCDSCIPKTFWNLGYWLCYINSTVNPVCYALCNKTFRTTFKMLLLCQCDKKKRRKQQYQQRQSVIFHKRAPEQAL
T4 sequence (P34972 whole entry): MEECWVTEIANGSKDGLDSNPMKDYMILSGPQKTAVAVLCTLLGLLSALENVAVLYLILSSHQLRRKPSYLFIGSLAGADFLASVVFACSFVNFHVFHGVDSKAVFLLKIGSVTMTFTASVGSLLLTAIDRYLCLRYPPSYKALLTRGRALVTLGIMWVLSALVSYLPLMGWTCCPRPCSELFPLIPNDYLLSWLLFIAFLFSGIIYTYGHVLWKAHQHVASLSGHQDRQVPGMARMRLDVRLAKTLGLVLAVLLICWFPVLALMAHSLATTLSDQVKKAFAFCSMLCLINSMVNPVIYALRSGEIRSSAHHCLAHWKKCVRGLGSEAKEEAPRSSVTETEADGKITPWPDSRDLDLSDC
T13 sequence (P04150 whole entry): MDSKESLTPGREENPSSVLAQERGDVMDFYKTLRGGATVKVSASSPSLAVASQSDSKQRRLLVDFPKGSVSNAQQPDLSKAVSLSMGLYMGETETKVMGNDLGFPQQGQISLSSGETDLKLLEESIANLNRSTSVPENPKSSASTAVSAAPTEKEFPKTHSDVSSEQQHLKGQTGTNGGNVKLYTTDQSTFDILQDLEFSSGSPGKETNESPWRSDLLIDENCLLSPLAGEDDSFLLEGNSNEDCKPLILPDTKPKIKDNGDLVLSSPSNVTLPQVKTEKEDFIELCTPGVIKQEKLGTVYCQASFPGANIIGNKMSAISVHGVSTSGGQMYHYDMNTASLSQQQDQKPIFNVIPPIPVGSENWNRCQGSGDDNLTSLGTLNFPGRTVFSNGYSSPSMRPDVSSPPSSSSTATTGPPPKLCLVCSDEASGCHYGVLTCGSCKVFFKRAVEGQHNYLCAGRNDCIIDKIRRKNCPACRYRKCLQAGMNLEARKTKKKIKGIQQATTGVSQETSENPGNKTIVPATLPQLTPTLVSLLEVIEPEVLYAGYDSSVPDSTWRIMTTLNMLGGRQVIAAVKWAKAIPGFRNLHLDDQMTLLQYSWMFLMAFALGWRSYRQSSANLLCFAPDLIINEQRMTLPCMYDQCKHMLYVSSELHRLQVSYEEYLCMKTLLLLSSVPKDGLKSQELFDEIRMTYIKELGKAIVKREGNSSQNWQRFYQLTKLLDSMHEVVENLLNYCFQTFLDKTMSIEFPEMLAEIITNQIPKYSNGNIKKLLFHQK
T12 sequence (P08908 whole entry): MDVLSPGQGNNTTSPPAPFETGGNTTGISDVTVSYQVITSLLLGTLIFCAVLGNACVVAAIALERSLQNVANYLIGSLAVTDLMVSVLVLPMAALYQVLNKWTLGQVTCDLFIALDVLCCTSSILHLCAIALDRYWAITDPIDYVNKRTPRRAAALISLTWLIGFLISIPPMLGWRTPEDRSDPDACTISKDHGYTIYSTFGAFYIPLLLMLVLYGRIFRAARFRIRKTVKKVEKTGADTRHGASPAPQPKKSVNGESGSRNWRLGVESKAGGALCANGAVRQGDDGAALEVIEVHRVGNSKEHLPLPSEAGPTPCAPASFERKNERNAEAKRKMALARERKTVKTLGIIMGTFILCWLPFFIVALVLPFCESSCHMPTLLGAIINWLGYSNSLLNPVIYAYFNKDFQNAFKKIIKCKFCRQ
Sequence of 5-HT2B (P41595 whole entry): as the sequence (P41595 whole entry) above

In the case of `CCC(N)Cc1cc(OC)c(C)cc1OC` (racemic) [Compound 32, 1-(2,5-dimethoxy-4-methylphenyl)butan-2-amine], the “% Response” value [1] is reported as −5%, the “% Response” value ([2]; listed as (rac)-Ariadne) is reported as “more than 50%” and the “% Response” value ([2]; listed as Ariadne) is reported as 72%. For the same compound, the “% Response” value [3] was −4%, the “combined score of DOM-like behavioral features” value [4] was “low combined score” and the “% Response” value [5] was −7%. For the same compound, the “% Response” value ([6]; listed as (rac)-Ariadne) was “more than 50%”, the “% Response” value ([6]; listed as Ariadne) was 72% and the “% Response” value [7] was 12%. For the same compound, the “% Response” value [8] was −15%, the “% Response” value [9] was 4% and the “% Response” value [10] was 3%. For the same compound, the “% Response” value [11] was −8%, the “% Response” value [12] was 13% and the “% Response” value [13] was −11%. The “% Response” value [14] was 36%, the “% Response” value [15] was −5% and the “% Response” value [16] was −2%.

In the case of `CC[C@@H](N)Cc1cc(OC)c(C)cc1OC` [(R)-Ariadne], the “latency to bite the presented food pellets” value [17] is reported as “dose-dependent trend toward reducing latency”, the EC50 [18] is reported as ~5 µM and the Emax [18] is reported as > 70%. The Emax [19] was 64%, the “general locomotion in novel environment” value ([20]; 10 mg/kg, s.c. (peak HTR dose)) was “minor sedative effect” and the “general locomotion in novel environment” value ([20]; 30 mg/kg) was “marked sedation”. The “time in the center of the arena” value ([20]; open field) was “trend for spending less time in the center”.
